For data set [1], the target named is human α-Gal A purified from plasma (Homo sapiens, UniProt P06280). The conditions noted are these: read-out: Km (4-MU-α-D-Gal); cited from earlier work.
In data set [2] the target is human α-Gal A purified from spleen (Homo sapiens, UniProt P06280). The following applies: read-out: Km (4-MU-α-D-Gal); cited from earlier work.
The test system of data set [3] is CHO cells secreting recombinant α-Gal A. The data set is described as follows: Effect of glycosylation inhibitors on the secretion of recombinant α-Gal A. It is filed as cell-based, Chinese hamster. The following applies: recombinant CHO cultures, FIG. 15; concentration not given. An excerpt:
FIG. 15. Effect of glycosylation inhibitors on the secretion of recombinant α-Gal.

The target of data set [4] is α-Gal A-Protein A domain E fusion protein (human; Staphylococcus aureus).
Data set [5] deals with recombinant human α-galactosidase A secreted by CHO DG5.3 cells (human).
Data set [6] has the same target. This is another data set of the same source.
The target of data set [7] is Sambucus nigra agglutinin (Sambucus nigra). The data set is described as follows: SNA-Sepharose chromatography of secreted enzyme.
Substrate in data set [8]: Cc1cc(=O)oc2cc(O[C@H]3O[C@H](CO)[C@H](O)[C@H](O)[C@H]3O)ccc12
The data set is described as follows: purified protein, by the assay type. The following applies: other: recombinant α-Gal A; artificial substrate; pH 4.6; 37.0 °C.

The values that follow come from US5580757A, “Cloning and expression of biologically active α-galactosidase A as a fusion protein” (The Mount Sinai School of Medicine of the City University …, priority 1994, dated 1996).

Like-named read-outs stand apart in the source and are kept apart here.

In general, Km refers to the substrate concentration at which the rate is half of its maximum.

As for `Cc1cc(=O)oc2cc(O[C@H]3O[C@H](CO)[C@H](O)[C@H](O)[C@H]3O)ccc12` [4-MU-α-D-galactopyranoside, 4-methylumbelliferyl-α-D-galactopyranoside], the Km is 1900 µM in data set [1] and 2500 µM in data set [2]. On to `OC[C@H]1NC[C@@H](O)[C@@H](O)[C@@H]1O` [deoxymannojirimycin], for which, in data set [3], the “α-Gal A secretion rate” value is “remains the same as the controls”. With `OC[C@H]1NC[C@H](O)[C@@H](O)[C@@H]1O` [deoxynojirimycin], the “α-Gal A secretion rate” value in data set [3] is “remains the same as the controls”. `O[C@H]1[C@H]2[C@H](O)CCCN2C[C@H]1O` [swainsonine]: the “α-Gal A secretion rate” value in data set [3] is on record as “remains the same as the controls”. Collagenase (enzyme) registered a % Of Recovered α-Gal A Activity in the IgG column flow-through after collagenase treatment in data set [4] of 89%. endoglycosidase F (enzyme): the shift in mobility on SDS-PAGE in data set [5] is 4 kDa. “peptide:N-glycosidase F (from UniProt P21163) (enzyme)”: the shift in mobility on SDS-PAGE in data set [6] came to 7 kDa. As to “recombinant human α-galactosidase A secreted by CHO DG5.3 cells (enzyme)”, the Percent of Secreted α-Gal A Bound to SNA-Lectin in data set [7] was found to be 5%.

As to tunicamycin, in data set [3], the “inhibition of secretion of α-Gal A” value is recorded as ≤ 80%.

B1: recombinant human α-galactosidase A (α-Gal A), secreted by CHO DG5.3 cells, purified (Homo sapiens) (protein)
chain: LDNGLARTPTMGWLHWERFMCNLDCQEEPDSCISEKLFMEMAELMVSEGWKDAGYEYLCIDDCWMAPQRDSEGRLQADPQRFPHGIRQLANYVHSKGLKLGIYADVGNKTCAGFPGSFGYYDIDAQTFADWGVDLLKFDGCYCDSLENLADGYKHMSLALNRTGRSIVYSCEWPLYMWPFQKPNYTEIRQYCNHWRNFADIDDSWKSIKSILDWTSFNQERIVDVAGPGGWNDPDMLVIGNFGLSWNQQVTQMALWAIMAAPLFMSNDLRHISPQAKALLQDKDVIAINQDPLGKQGYQLRQGDNFEVWERPLSGLAWAVAMINRQEIGGPRSYTIAVASLGKGVACNPACFITQLLPVKRKLGFYEWTSRLRSHINPTGTVLLQLENTMQMSLKDLL
Take B1: the Km in data set [8] was determined as 1900 µM.
